Each compound was assayed against T1, Progesterone receptor (Homo sapiens, UniProt P06401) (assay: Antagonist activity at progesterone receptor expressed in T47D cells assessed as inhibition of progesterone-induced alkaline phosphatase activity).
T1 sequence (P06401 whole entry): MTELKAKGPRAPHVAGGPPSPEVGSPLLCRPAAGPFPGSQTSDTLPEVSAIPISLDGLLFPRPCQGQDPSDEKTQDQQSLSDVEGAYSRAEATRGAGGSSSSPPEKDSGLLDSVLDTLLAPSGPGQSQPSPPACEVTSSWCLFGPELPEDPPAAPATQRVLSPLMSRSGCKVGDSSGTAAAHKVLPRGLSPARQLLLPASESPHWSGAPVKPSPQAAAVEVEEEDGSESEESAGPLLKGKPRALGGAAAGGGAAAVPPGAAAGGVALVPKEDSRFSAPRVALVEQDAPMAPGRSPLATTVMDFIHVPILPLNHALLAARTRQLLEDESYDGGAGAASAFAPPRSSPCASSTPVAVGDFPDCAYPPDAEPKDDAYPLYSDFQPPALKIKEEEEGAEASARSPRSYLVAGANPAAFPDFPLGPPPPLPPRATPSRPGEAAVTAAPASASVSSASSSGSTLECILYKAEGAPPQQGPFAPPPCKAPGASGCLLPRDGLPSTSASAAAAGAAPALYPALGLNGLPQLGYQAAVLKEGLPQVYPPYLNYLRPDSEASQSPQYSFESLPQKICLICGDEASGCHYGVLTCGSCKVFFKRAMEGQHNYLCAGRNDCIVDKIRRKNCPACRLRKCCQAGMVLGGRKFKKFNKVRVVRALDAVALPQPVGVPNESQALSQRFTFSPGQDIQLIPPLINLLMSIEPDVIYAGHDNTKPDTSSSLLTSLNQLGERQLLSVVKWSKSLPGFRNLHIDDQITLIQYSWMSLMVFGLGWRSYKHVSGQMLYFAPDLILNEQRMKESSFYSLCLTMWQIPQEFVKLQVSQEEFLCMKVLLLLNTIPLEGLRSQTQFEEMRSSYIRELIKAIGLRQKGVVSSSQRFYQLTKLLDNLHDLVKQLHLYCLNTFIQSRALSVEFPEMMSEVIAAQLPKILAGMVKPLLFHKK
Assay type: functional, cell-based

Row | SMILES | IC50 [nM]
1 | CCN1C(=O)OC(C)(C)c2cc(Nc3ccc(Br)cc3)ccc21 | 1000
2 | CCC1(CC)OC(=O)N(C)c2ccc(Nc3ccc(C#N)c(F)c3)cc21 | 37.1
3 | CCC1(CC)OC(=O)N(C)c2ccc(Nc3ccc(Cl)c(Cl)c3)cc21 | 29.8
4 | CC1(C)OC(=O)N(c2ccccc2)c2ccc(Nc3ccc(Br)cc3)cc21 | 3000
5 | CC(C)N1C(=O)OC(C)(C)c2cc(Nc3ccc(Br)cc3)ccc21 | 1000
6 | CCC1(CC)OC(=O)N(C)c2ccc(Nc3ccc(F)c(F)c3)cc21 | 27.4
7 | CN1C(=O)OC(C)(C)c2cc(Nc3ccc(Cl)c(Cl)c3)ccc21 | 100
8 | CN1C(=O)OC(C)(C)c2cc(Nc3ccc(Br)cc3)ccc21 | 54.4
9 | CCC1(CC)OC(=S)N(C)c2ccc(Nc3ccc(F)c(F)c3)cc21 | 42.2
10 | CCC1(c2ccc(Cl)cc2)OC(=O)N(C)c2ccc(Nc3cccc(Cl)c3)cc21 (centres undefined) | 71.8
11 | CN1C(=S)OC(C)(C)c2cc(Nc3ccc(Br)cc3)ccc21 | 30
12 | CC1(C)OC(=O)N(Cc2ccccc2)c2ccc(Nc3ccc(Br)cc3)cc21 | 3000
13 | CC1(C)OC(=O)Nc2ccc(Nc3cccc(Cl)c3Cl)cc21 | 206
14 | CCC1(CC)OC(=O)N(C)c2ccc(Nc3ccc(F)c(Cl)c3)cc21 | 9
15 | CN1C(=O)OC(c2ccc(Cl)cc2)(c2ccc(Cl)cc2)c2cc(Nc3cccc(Cl)c3)ccc21 | 1000
16 | CCC1(CC)OC(=O)N(C)c2ccc(Nc3cc(F)cc(C#N)c3)cc21 | 14.5
17 | CCC1(CC)OC(=O)N(C)c2ccc(Nc3cc(F)cc([N+](=O)[O-])c3)cc21 | 8.4
18 | CCC1(c2ccccc2)OC(=O)N(C)c2ccc(Nc3cccc(Cl)c3)cc21 (centres undefined) | 66.1
19 | CCC1(CC)OC(=O)N(C)c2ccc(Nc3ccc(F)c(C#N)c3)cc21 | 9.2
20 | CCC1(CC)OC(=O)N(C)c2ccc(Nc3cccc(Cl)c3)cc21 | 13.1
21 | CCC1(CC)OC(=O)N(C)c2ccc(Nc3cccc(Cl)c3Cl)cc21 | 5
22 | CCC1(c2cccs2)OC(=O)N(C)c2ccc(Nc3cccc(Cl)c3)cc21 (centres undefined) | 32.2
23 | CCC1(CC)OC(=O)N(C)c2ccc(Nc3cc(Cl)cc(Cl)c3)cc21 | 8.1
24 | CN1C(=O)OC(C)(C)c2cc(Nc3cccc(Cl)c3Cl)ccc21 | 56

— ChEMBL document CHEMBL1138375, “SAR studies of 6-(arylamino)-4,4-disubstituted-1-methyl-1,4-dihydro-benzo[d][1,3]oxazin-2-ones as progesterone receptor antagonists” (Bioorg Med Chem Lett, 2007)
